ChEMBL document CHEMBL3507680, “University of Dundee, Gates Library screen for HepG2 cell viability”

Experiment: Human HepG2 cell viability assay in 384 well format
Format: toxicity, cell-based
Set-up: dose 125 nL, time 70.5 hour; cytotoxicity at 70.5 h: concentration not given beside the values
Conditions: HepG2 cells, read-out: Inhibition

Row | SMILES | cytotoxicity at 70.5 h
1 | O=C(Nc1ccccc1C(=O)NCCN1CCOCC1)c1ccco1 | 24.9%
2 | COCCCN1C(=O)CC[C@H]2CN(Cc3ccc4nonc4c3)CC[C@H]21 | -5.42%
3 | CC(C)=CCN1C[C@H]2CC[C@@H]1CN(C(=O)Cc1c(C)nc(C)[nH]c1=O)C2 | 1.03%
4 | CN(C)c1cnn(CC(=O)N2Cc3ccccc3C2)c(=O)c1 | 22%
5 | O=C1C[C@H]2CC[C@@H](CN1)N2C1CCOCC1 | -1.49%
6 | O=c1[nH]ccc2cc(-c3cc(O)cc(CCC4CCCCN4)c3)ccc12 (stereo unspecified) | -7.29%
7 | Cc1sc2nc(CCN)nc(N(CCN(C)C)CC3CCCO3)c2c1C (stereo unspecified) | 5.16%
8 | Cc1noc(C(C)N(C)CC(=O)NCCc2ccc(Cl)cc2)n1 (stereo unspecified) | 24.6%
9 | CC(=O)NCc1cc2n(n1)CCN(Cc1ccccc1OC(F)(F)F)C2 | -3.35%
10 | COc1cc(C(=O)NCCS(=O)(=O)N(C)C)c2ccccc2n1 | 1.37%
11 | CC1(C)CC(CC(=O)N2CC(C)(C)[C@@](C)(O)C2)CC(C)(C)N1 | 13%
12 | Cc1ccccc1Oc1ncccc1CNS(=O)(=O)N(C)C | -1.73%
13 | Cc1nnsc1CNC(=O)CSCc1ccccc1Cl | -7.02%
14 | CN1CC2(CCN(Cc3cc(Cl)ccc3OCC(=O)O)CC2)OC1=O | -8.9%
15 | Cc1c(Cl)cc(C(=O)N(CCO)Cc2nccn2C)cc1Cl | -0.75%
16 | CC1(C)Cc2c(cnn2-c2ccccc2)C(NC2CCSCC2)C1 (stereo unspecified) | -5.66%
17 | Cc1nccc(-c2ccccc2)c1C(=O)N1CCC2(CCCO2)CC1 | 2.47%
18 | Cc1cc(C)cc(CCC(=O)N2CCN(c3cc(C)nc(N)n3)CC2)c1 | 6.95%
19 | CC(C)(C)c1ccn(C2(C(=O)O)CCN(c3ncccc3C#N)CC2)n1 | -2.37%
20 | COCCN(Cc1ccncc1)C(=O)C1COc2ccccc2C1 (stereo unspecified) | -6.32%
21 | CC(=O)N[C@@H]1CN(C(=O)c2cc3sccc3[nH]2)C[C@H]1c1ccc(C)o1 | -3.33%
22 | Cc1cnccc1Cn1ccnc1C1CCOC1 (stereo unspecified) | -7.66%
23 | COCCN(C)[C@@H]1c2ccccc2C2(CCNCC2)[C@H]1O | -4.67%

Row | SMILES | cytotoxicity at 70.5 h
24 | CCc1n[nH]c(C(=O)NCCn2ccnc2C)c1C | -5.75%
25 | c1ccc(C2CN(C3CC3)CC3(CCN(Cc4ncc[nH]4)CC3)C2)cc1 (stereo unspecified) | -6.48%
26 | CC1(C)CNC(=O)c2nc(CCN3CCCCC3CO)[nH]c2C1 (stereo unspecified) | 4.33%
27 | COc1ccc(CN2CCC=C(C(C)NC(C)=O)C2)cc1 (stereo unspecified) | -10.1%
28 | COCCCC1CCCCN1Cc1cc(F)ccc1-n1cccn1 (stereo unspecified) | 9.72%
29 | Cc1nc(CN2CC(=O)N(C)c3ccccc3C2=O)no1 | -1.75%
30 | CC(=O)N1C[C@H](NS(=O)(=O)N2CCOCC2)[C@@H](c2ccc(C)o2)C1 | -7.85%
31 | COc1ccc(CN(Cc2ccsc2)CC2CCCO2)cn1 (stereo unspecified) | -2.5%
32 | COc1ccccc1OC1CN(C(=O)C(c2ccc(F)cc2)N(C)C)C1 (stereo unspecified) | -1.1%
33 | NCC1CN(c2nc(-c3cccnc3)nc3c2CCNCC3)CCO1 (stereo unspecified) | 26.4%
34 | NC(=O)NCC(=O)N1CCC(c2cc(-c3ccccc3Cl)n[nH]2)CC1 | -4.95%
35 | CSCCNC(=O)c1coc(COc2ccc3sc(C)nc3c2)n1 | -13.9%
36 | c1ccc2c(c1)ccn2CCCNC1CCOC2(CCOCC2)C1 (stereo unspecified) | 32.9%
37 | COCCCN1C(=O)CC[C@H]2CN(Cc3ncc[nH]3)CC[C@H]21 | 8.43%
38 | Cn1cc(C(=O)N2CC[C@@]3(O)CCN(C(=O)C4CCC4)C[C@H]3C2)cn1 | 3.54%
39 | CC(C)c1noc(-c2ccc(NCCCC3CCOC3)nc2)n1 (stereo unspecified) | -0.0541%
40 | Cc1cc(N2CCC(n3cc(CN4CCC[C@@H]4CO)nn3)CC2)ccn1 | -8.62%
41 | Cn1ccnc1CN1CCC(Cn2cc(-c3ccncc3)nn2)CC1 | 3.24%
42 | O=C(NC1CCCCC1)[C@H]1CNC[C@@H](COc2cccnc2)C1 | -3.95%
43 | Cc1ccc(-c2cc(CNc3ncnc4c3CCNCC4)no2)cc1 | 1.89%
44 | CSc1ccccc1CCC1CCS(=O)(=O)C1 (stereo unspecified) | -1.45%
45 | O=C(c1ccc(Cl)cc1F)N1CCC(Cn2cc(CO)nn2)CC1 | -5.57%
46 | O=C(CCn1ccc2ncccc2c1=O)N1CCCC1 | 0.26%

Row | SMILES | cytotoxicity at 70.5 h
47 | COc1c(F)cccc1C(=O)N(C)Cc1nc(-c2ccccn2)no1 | -6.48%
48 | O=C1CCC2(CCCN(CCn3cc(Cl)cn3)C2)CN1C1CCCC1 (stereo unspecified) | -19.7%
49 | CCN(Cc1ccncc1)C1CCCN(Cc2ccc(F)cc2OC)C1 (stereo unspecified) | -1.99%
50 | Cc1nc(CNC2CC(=O)N(CCc3cccc(Cl)c3)C2)c[nH]1 (stereo unspecified) | -5.42%
51 | CCn1c(CC2CCN(C(=O)c3cc(CC(C)C)on3)CC2)n[nH]c1=O | -2.52%
52 | CC(=O)N1CCCN(C(C(=O)O)c2ccc(C)cc2C)CC1 (stereo unspecified) | -10.9%
53 | Cc1cc(C(=O)NCCCn2nccc2C2CC2)c(=O)[nH]c1C | -14.7%
54 | CCCOCCn1ncc(N2CCc3ccccc3C2)cc1=O | -1.9%
55 | COc1ccc(C(=O)N2CCC(Oc3ccc(C)cc3)(C(=O)O)CC2)o1 | 0.709%
56 | CC(c1cccc(-c2ncccc2C#N)c1)N(C)C (stereo unspecified) | -15.1%
57 | O=C(CCC1CCN(C2Cc3ccccc3C2)CC1)NCC1CCCO1 (stereo unspecified) | 25.6%
58 | Cc1cnc(C)c(N2CCC(Cc3ccccc3Cl)(C(=O)O)CC2)n1 | -8.45%
59 | CCn1cc(C(=O)NCCN2CCCc3ccccc32)c(C)n1 | -0.0816%
60 | CNc1cc(C(=O)NCCC2=CSC3=NCCCN23)ccn1 | 1.26%
61 | CC(C)c1nc(CN(C)C(=O)c2ccc3c(c2)OCO3)cs1 | -9.84%
62 | CCNC(=O)[C@@H]1C[C@H](NC(=O)c2cc(CC)n[nH]2)CN1Cc1ccsc1 | -6.78%
63 | Cc1cc(C)n(CCN(C)c2ccc(-c3nc(C4CC4)no3)cn2)n1 | 10.5%
64 | Clc1ccccc1CCn1ccnc1-c1cn(C2CCNCC2)nn1 | -8.18%
65 | Cc1ccc2c(c1)SCC(=O)N2Cc1noc(C2CC2)n1 | 16.3%
66 | CNC(=O)C1CCCN1c1nc(C)c2ccccc2n1 (stereo unspecified) | -16.3%
67 | Cc1ccc(C(=O)N2CCCC(Nc3ccc(F)cc3)C2)cc1 (stereo unspecified) | -1.63%
68 | CN(CCn1ccc2ccccc21)C(=O)CS(C)(=O)=O | 18%
69 | COCC[C@]1(O)CCN(Cc2nnc(C)s2)C[C@H]1C | -9.14%

Row | SMILES | cytotoxicity at 70.5 h
70 | CN(C)C(=O)N1CCN(Cc2ccc3occc3c2)[C@H]2CS(=O)(=O)C[C@H]21 | -3.65%
71 | O=C(c1ccc(S(=O)(=O)N2CCSCC2)cc1)N1CCC(O)C1 (stereo unspecified) | -17.3%
72 | Cc1nnc(CNC(=O)CC2CCc3ccccc32)o1 (stereo unspecified) | 25.8%
73 | Cc1nc2c(c(NC3CCN(Cc4ccccc4)CC3)n1)CCNCC2 | 0.337%
74 | Cc1ncccc1OC1(C(=O)NCc2noc(C(C)C)n2)CCNCC1 | -5.62%
75 | CCCNC(=O)N1CCC(c2nnc(Cn3cccn3)n2C2CC2)CC1 | -10.5%
76 | CCOC(=O)CC(C)NC(=O)c1cn(Cc2ccccc2F)nn1 (stereo unspecified) | -1.02%
77 | Cn1cc(C(=O)N2CC[C@@]3(O)CCN(C4CCCCC4)C[C@H]3C2)cn1 | -2.94%
78 | CC(C)c1noc(C(C)Nc2nccc(CCC(F)(F)F)n2)n1 (stereo unspecified) | -10.8%
79 | Cc1n[nH]c(C)c1CN1CCC(c2cc(C(C)C)n[nH]2)CC1 | 1.2%
80 | Cc1nn(C)c2nc(N(C)CC3CCN(CC(C)C)C3)sc12 (stereo unspecified) | 1.29%
81 | Cn1cc(-c2cc(C(=O)N3CCOCC3)c3ccc(F)cc3n2)cn1 | 24.6%
82 | CN(C)CCN(C)c1nc(CCc2ccccc2)nc2c1cnn2C | -1.09%
83 | COc1cc(Cl)cc(C(=O)N2CCC3(CC2)CNC(=O)C3)c1 | -15.2%
84 | COc1ccc(C)cc1C(C(=O)O)N1CCN(Cc2ccccn2)CC1 (stereo unspecified) | 3.54%
85 | Cc1nc(S(=O)(=O)N2CCc3[nH]nc(CCC(C)C)c3C2)cn1C | -6.22%
86 | CCc1ccccc1OC1CN(C(=O)CN(C)Cc2ccncc2)C1 | -8.04%
87 | O=C1CC2(CCN(Cc3ccoc3)CC2)CN1Cc1cc(F)cc(F)c1 | -6.12%
88 | COCC[C@]1(O)CCN(C(=O)c2cnn(C)c2)C[C@H]1C | -0.906%
89 | C[C@H](c1ccc(F)cc1)n1c(C2CCC2)n[nH]c1=O | -12.6%
90 | Cc1cc(CN2CCCC2)cc(Oc2ccc3c(c2)CC(CN)O3)c1 (stereo unspecified) | -11.7%
91 | Cc1cnccc1-n1nc(C(C)C)nc1CS(C)(=O)=O | -9.46%
92 | COc1nccc(N2CC[C@@H](N3CCCCCC3)[C@H](O)C2)c1C#N | -11.1%

Row | SMILES | cytotoxicity at 70.5 h
93 | CC(C)CCn1cc(C(C(=O)O)N2CCC(N3CCSCC3)CC2)cn1 (stereo unspecified) | 3.77%
94 | CCc1cc(N(C)Cc2c(C)nn(C)c2C)n2nccc2n1 | -2.89%
95 | Cc1cc(C)c(C(=O)N2CCn3nc(C(=O)NCCN(C)C)cc3C2)[nH]1 | -3.17%
96 | CCCc1nnc(N2CC[C@@](O)(C3CCOCC3)[C@H](C)C2)s1 | 3.18%
97 | CC(c1ccon1)N(C)C(=O)C1CCN(CC(N)=O)CC1 (stereo unspecified) | 18%
98 | Cc1nc(CN)cc(NCc2ccccc2-n2cncn2)n1 | 25%
99 | O=C1O[C@@H]2CN(c3ncccn3)C[C@@H]2N1CCCc1ccc(F)cc1 | -7.46%
100 | Cc1ccc(C)c(OCCN(C)C(=O)C2CCCN2C(N)=O)c1C (stereo unspecified) | -2.41%
101 | CC(=O)N1CCc2c(nc(N(C)C)nc2NCCc2cccs2)C1 | -5.76%
102 | CC(C)NC(=O)CN1CCN(CC2CCOc3ccccc3C2)CC1 (stereo unspecified) | -7.34%
103 | CN1CC(c2ccccc2)CC12CCN(C(=O)c1ccc(Cl)cn1)CC2 (stereo unspecified) | 19.6%
104 | COc1ccc2cc(-c3n[nH]cc3CN3CCSCC3)ccc2c1 | 0.45%
105 | Cc1cc(C(=O)N(C)CCCn2cccn2)nc(N)n1 | -5.11%
106 | COc1ccccc1N1CCN(C(=O)Cn2nccc2C)CC1(C)C | -3.69%
107 | Cn1cc(CN2CC[C@@H]3[C@@H](CCC(=O)N3CC3CCNCC3)C2)cn1 | 1.94%
108 | COC(=O)c1ccc(N2CCN(C(=O)c3ccc(=O)n(C)c3)CC2)cc1 | -5.8%
109 | O=C(O)CC1COCCN1CCCc1ccccc1 (stereo unspecified) | -11.2%
110 | CSc1ccccc1C(=O)NCc1cc2n(n1)CCCN(CC(C)C)C2 | 22.5%
111 | Cc1nc2sccn2c1C(=O)N1CCc2[nH]cnc2C1 | 10.2%
